According to patent publication US20250282798A1, “HETEROARYL-SUBSTITUTED BICYCLIC COMPOUND AND USE THEREOF” (Medshine Discovery Inc., priority 2022, published 2025):

What was measured:
Jurkat cells = assay: IL-2 assay of Jurkat cells (ELISA); type: cell-based; details: CD3/CD28 antibodies, 48 hours
Procedure: The concentration of Jurkat cells growing in the logarithmic phase was adjusted to 1×10^6/mL. 100 μL/well of the cells was taken and plated in a 96-well round-bottom plate coated with CD3 antibodies. The cells were treated with different concentrations of the compounds with the addition of CD28 antibodies for 48 hours. The supernatant of the cell culture was collected, diluted 5-fold, and added to an ELISA plate coated with IL-2. The enzyme-linked immunosorbent assay was performed according to the kit instructions (Dakewe, 1110202). OD570 and OD450 were read with Envision, and the data were analyzed by Prism.

human HPK1 = human HPK1 (Homo sapiens (Human), UniProt Q92918); assay: 33P isotope-labeled kinase activity assay (Method 1); type: biochemical; details: HPK1 enzyme concentration 8.1 nM; ATP concentration 15 μM
Procedure: Method 1: The IC50 value was assayed by ^33P isotope-labeled kinase activity assay to evaluate the inhibitory ability of a test compound on human HPK1.
Enzyme buffer conditions: 50 mM Hepes (pH 7.5), 10 mM MgCl2, 1 mM EGTA, 0.01% Brij35, 2 mM DTT.
Assay steps: A compound was diluted 3-fold with DMSO in a dilution plate, with a final initial concentration of […] and 10 concentration gradient points. The compound was diluted 50-fold into the kinase reaction buffer, and the mixture was shaken on a shaker for 20 minutes. The kinase was prepared with the enzyme reaction buffer. 2 μL of kinase was added to each well of a reaction plate. 1 μL of the diluted compound in the buffer was added to each well. The plate was sealed with a sealing film, centrifuged at 1000 g for 30 seconds, and placed at room temperature for 10 minutes. The mixed solution of ATP/MBP was prepared with the enzyme reaction buffer. 2 μL of the mixed solution of ATP/MBP was added to the reaction plate. The plate was sealed with a sealing film, and centrifuged at 1000 g for 30 seconds. The mixture in the plate was reacted at room temperature for 60 minutes. […] The plate was incubated at 25° C. for 40 min. […] The plate was incubated at 25° C. for 40 min. The RLU (relative luminescence unit) signal was read with a BMG microplate reader, and the signal intensity was used to characterize the activity of the kinase.

human HPK1, sequence (Q92918 whole entry): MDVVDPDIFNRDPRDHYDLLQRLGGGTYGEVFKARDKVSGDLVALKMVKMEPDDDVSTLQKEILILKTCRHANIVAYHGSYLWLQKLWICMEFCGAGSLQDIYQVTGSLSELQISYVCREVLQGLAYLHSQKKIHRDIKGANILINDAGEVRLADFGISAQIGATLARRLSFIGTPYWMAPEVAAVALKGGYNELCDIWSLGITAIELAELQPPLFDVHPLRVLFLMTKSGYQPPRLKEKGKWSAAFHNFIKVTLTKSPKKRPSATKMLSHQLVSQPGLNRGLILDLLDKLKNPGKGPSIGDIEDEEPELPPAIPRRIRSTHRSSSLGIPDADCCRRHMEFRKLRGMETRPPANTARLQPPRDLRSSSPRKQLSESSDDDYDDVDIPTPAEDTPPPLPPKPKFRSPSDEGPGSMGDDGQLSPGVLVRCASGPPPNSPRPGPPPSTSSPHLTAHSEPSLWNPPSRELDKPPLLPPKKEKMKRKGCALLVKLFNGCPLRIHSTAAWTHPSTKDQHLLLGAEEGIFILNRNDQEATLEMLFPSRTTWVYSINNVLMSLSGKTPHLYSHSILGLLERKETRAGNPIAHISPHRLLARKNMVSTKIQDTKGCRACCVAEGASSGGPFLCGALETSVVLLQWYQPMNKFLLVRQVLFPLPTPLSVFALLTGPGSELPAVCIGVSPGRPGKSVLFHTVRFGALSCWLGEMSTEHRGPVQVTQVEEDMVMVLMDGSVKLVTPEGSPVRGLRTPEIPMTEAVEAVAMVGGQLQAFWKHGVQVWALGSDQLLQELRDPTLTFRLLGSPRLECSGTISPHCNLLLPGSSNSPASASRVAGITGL

EC50 (Jurkat cells; Homo sapiens) [nM] | IC50 (human HPK1) [nM] | EC50 (Jurkat cells) [nM] | SMILES
320 | 8 | – | CCN1CCN2c3ccc(Nc4ccc(-c5ccnc6c5ccn6C)c5c4C(=O)NC5)nc3OC[C@H]2C1 [Compound 6]
– | 3 | 710 | Cn1ccc2c(-c3ccc(Nc4ccc5c(n4)OC[C@H]4CNCCN54)c4c3CNC4=O)ccnc21 [Compound 5]
